Experiment [1] has as its target T1, HCV RNA-dependent RNA polymerase (NS5B protein) (Hepatitis C virus genotype 1b, UniProt P26663).
T1 construct: The cDNA encoding the entire NS5B protein of HCV-Bk strain, genotype 1b; added initiator Met (ATG introduced before the NS5B coding region) (N); made in house; host or cells: Sf9 insect cells, recombinant baculovirus BacNS5B (pBlueBacII)
Description: In vitro HCV RNA-dependent RNA polymerase assay, triphosphate form of guanosine analogues (polyC/oligoG or heteropolymeric RNA template, [32P]-GTP incorporation). In kind it is biochemical, HCV-Bk strain. Particulars: purified recombinant NS5B; for inhibition at 50 µM: @50 μM compound. As for the experimental part:
(§1) Compounds were evaluated using an in vitro polymerase assay containing purified recombinant HCV RNA-dependent RNA polymerase (NS5B protein). HCV NS5B was expressed in insect cells using a recombinant baculovirus as vector. The experimental procedures used for the cloning, expression and purification of the HCV NS5B protein are described bellow. Follows, are details of the RNA-dependent RNA polymerase assays used to test the compounds.
(§2) The cDNA encoding the entire NS5B protein of HCV-Bk strain, genotype 1b, was amplified by PCR using a plasmid containing a cDNA version of the full-length HCV genome as template. The oligonucleotides used to amplify this HCV region were designed to introduce a NheI site followed by an ATG at the 5′ end of the NS5B coding region as well as a BamHI site at the 3′end immediately downstream of the translation stop codon. The amplified sequence, of 1.8 kb, was digested with NheI and BamHI and ligated to a predigested pBlueBacII plasmid (Invitrogen). The resulting recombinant plasmid was designated pBac/NS5B. Sf9 cells were co-transfected with 3 μg of pBac/NS5B, together with 1 μg of linearized baculovirus DNA (Invitrogen), as described in the manufacturer's protocol. Following two rounds of plaque purification, an NS5B-recombinant baculovirus, BacNS5B, was isolated. The presence of the recombinant NS5B protein was determined by western blot analysis (Harlow and Lane, 1988) of BacNS5B-infected Sf9 cells, using a HCV NS5B specific rabbit polyclonal antiserum (anti-NS5B). Infections of Sf9 cells with this plaque purified virus were performed in one-liter spinner flasks at a cell density of 1.2×10^6 cells/ml and a multiplicity of infection of 5.
(§3) Sf9 cells were infected as described above. Sixty hours post-infection, cells were harvested then washed twice with phosphate buffer saline (PBS). Total proteins were solubilized as described in Lohmann et al. (1997) with some modifications. In brief, proteins were extracted in three steps, S1, S2, S3, using lysis buffers (LB) I, LB II and LB III (Lohmann et al, 1997). The composition of LBII was modified to contain 0.1% triton X-100 and 150 mM NaCl to reduce the amount of solubilized NS5B protein at this step. In addition, sonication of cell extracts was avoided throughout the protocol to preserve the integrity of the protein structure.
Soluble NS5B protein in the S3 fraction was diluted to lower the NaCl concentration to 300 mM, then it incubated batchwise with DEAE sepharose beads (Amersham-Pharmacia) for 2 hrs at 4° C., as described by Behrens et al. (1996). Unbound material was cleared by centrifugation for 15 min at 4° C., at 25000 rpm using a SW41 rotor (Beckman). […] Eluted fractions were analyzed by SDS-PAGE and western blotting. […]

In experiment [2] the target is T1, HCV RNA-dependent RNA polymerase (NS5B protein). Briefly: In vitro HCV RNA-dependent RNA polymerase assay, triphosphate form of cytosine analogues (polyrI/oligodC or heteropolymeric RNA template, [32P]-CTP incorporation). It is filed as biochemical, HCV-Bk strain. The conditions noted are these: purified recombinant NS5B; for inhibition at 50 µM: @50 μM compound; for inhibition at 100 µM: @100 μM compound. As for the experimental part:
as §1, §2, §3
Soluble NS5B protein in the S3 fraction was diluted to lower the NaCl concentration to 300 mM, then it incubated batchwise with DEAE sepharose beads (Amersham-Pharmacia) for 2 hrs at 4° C., as described by Behrens et al. (1996). Unbound material was cleared by centrifugation for 15 min at 4° C., at 25000 rpm using a SW41 rotor (Beckman). The supernatant was further diluted to lower the NaCl concentration to 200 mM and subsequently loaded, with a flow rate of 1 ml/min, on a 5 ml HiTrap® heparin column (Amersham-Pharmacia) connected to an FPLC® system (Amersham-Pharmacia). Bound proteins were eluted in 1 ml fractions, using a continuous NaCl gradient of 0.2 to 1 M, over a 25 ml volume. NS5B-containing fractions were identified by sodium dodecyl sulfate polyacrylamide gel electrophoresis (SDS-PAGE), followed by western blotting using the anti-NS5B antiserum at a dilution of 1:2000. Positive fractions were pooled and the elution buffer was exchanged against a 50 mM NaPO4 pH 7.0, 20% glycerol, 0.5% triton X-100 and 10 mM DTT, using a PD-10 column (Amersham-Pharmacia). The sample was then loaded onto a 1 ml HiTrap® SP column (Amersham-Pharmacia), with a flow rate of 0.1 ml/min. Bound proteins were eluted using a continuous 0 to 1 M NaCl gradient over a 15 ml volume. Eluted fractions were analyzed by SDS-PAGE and western blotting. Alternatively, proteins were visualized, following SDS-PAGE, by silver staining using the Silver Stain Plus kit (BioRad) as described by the manufacturer.
RdRp assays were conducted using either homopolymeric template/primers or in vitro transcribed RNA templates. […]

Each structure is given as a SMILES string.

T1 sequence (P26663 2420-3010): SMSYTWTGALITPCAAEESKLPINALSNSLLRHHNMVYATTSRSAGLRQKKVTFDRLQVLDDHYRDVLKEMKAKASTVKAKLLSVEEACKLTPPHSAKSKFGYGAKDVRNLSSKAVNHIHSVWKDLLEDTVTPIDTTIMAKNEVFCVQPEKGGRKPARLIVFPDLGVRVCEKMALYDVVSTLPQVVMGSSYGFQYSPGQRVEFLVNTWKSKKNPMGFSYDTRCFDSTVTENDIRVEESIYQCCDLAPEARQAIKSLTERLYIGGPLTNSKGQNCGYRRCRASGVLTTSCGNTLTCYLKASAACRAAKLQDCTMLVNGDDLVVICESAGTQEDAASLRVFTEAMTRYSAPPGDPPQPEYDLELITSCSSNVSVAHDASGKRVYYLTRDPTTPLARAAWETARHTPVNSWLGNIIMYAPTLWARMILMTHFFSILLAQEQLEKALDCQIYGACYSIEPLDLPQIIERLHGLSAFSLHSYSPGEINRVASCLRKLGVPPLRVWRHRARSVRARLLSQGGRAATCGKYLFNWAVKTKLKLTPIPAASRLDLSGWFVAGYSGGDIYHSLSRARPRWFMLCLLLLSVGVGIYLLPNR

A word on the inhibition: it is the relative decrease from the control value, in per cent. Broadly, the IC50 is the concentration that inhibits the measured activity by half. For `Nc1nc2c(ncn2[C@H]2CO[C@@H](COP(=O)(O)OP(=O)(O)OP(=O)(O)O)O2)c(=O)[nH]1` (single isomer, unassigned) [13(-) triphosphate, (−)-triphosphate-cis-2-hydroxymethyl-4-(guanin-9′-yl)-1,3-dioxolane], in experiment [1], the inhibition at 50 µM is 82% and the IC50 turned out to be 10 µM.

As to `Nc1ccn([C@H]2CO[C@@H](COP(=O)(O)OP(=O)(O)OP(=O)(O)O)O2)c(=O)n1` (single isomer, unassigned) [COMPOUND#22(+), (+)-triphosphate-cis-2-hydroxymethyl-4-(cytosin-1′-yl)-1,3-dioxolane], in experiment [2], the inhibition at 50 µM was found to be 85% and the IC50 was 7.7 µM.

As to `Nc1nc(=O)n([C@@H]2CO[C@H](COP(=O)(O)OP(=O)(O)OP(=O)(O)O)O2)cc1F` (single isomer, unassigned) [COMPOUND#23(−), (−)-triphosphate-cis-2-hydroxymethyl-4-(5′-fluorocytosin-1′-yl)-1,3-dioxolane], in experiment [2], the inhibition at 100 µM is 81% and the concentration for half-maximal inhibition (IC50) was 16 µM.

For the compound `Nc1nc(NC2CC2)c2ncn([C@H]3CO[C@@H](COP(=O)(O)OP(=O)(O)OP(=O)(O)O)O3)c2n1` [9(-)-triphosphate, (−)-triphosphate-cis-2-hydroxymethyl-4-(2′-amino-6′-cyclopropylamino-purine-9′-yl)-1,3-dioxolane], in experiment [1] (@100 μM compound), the inhibition at 100 µM is 44%.

For the compound `Nc1ncnc2c1ncn2[C@H]1CO[C@@H](COP(=O)(O)OP(=O)(O)OP(=O)(O)O)O1` [14(-)-triphosphate, (−)-triphosphate-cis-2-hydroxymethyl-4-(adenin-9′-yl)-1,3-dioxolane], the inhibition at 50 µM in experiment [1] stood at 6%.

As to `Nc1ccn([C@@H]2CO[C@H](COP(=O)(O)OP(=O)(O)OP(=O)(O)O)O2)c(=O)n1` [COMPOUND#22(−), (−)-triphosphate-cis-2-hydroxymethyl-4-(cytosin-1′-yl)-1,3-dioxolane], in experiment [2], the inhibition at 100 µM was found to be 15%.

Regarding `Nc1nc(=O)n([C@H]2CO[C@@H](COP(=O)(O)OP(=O)(O)OP(=O)(O)O)O2)cc1F` [COMPOUND#23(+), (+)-triphosphate-cis-2-hydroxymethyl-4-(5′-fluorocytosin-1′-yl)-1,3-dioxolane], the inhibition at 100 µM in experiment [2] is 57%.

For `Nc1ncn([C@H]2CO[C@@H](COP(=O)(O)OP(=O)(O)OP(=O)(O)O)O2)c(=O)n1` [COMPOUND#24(+), (+)-triphosphate-cis-2-hydroxymethyl-4-(5′-azacytosin-1′-yl)-1,3-dioxolane], the inhibition at 50 µM in experiment [2] stood at 12%.

Consider `Nc1ncn([C@@H]2CO[C@H](COP(=O)(O)OP(=O)(O)OP(=O)(O)O)O2)c(=O)n1` [COMPOUND#24(−), (−)-triphosphate-cis-2-hydroxymethyl-4-(5′-azacytosin-1′-yl)-1,3-dioxolane], for which the inhibition at 100 µM in experiment [2] stood at 8%.

For the compound `Cc1cn([C@H]2CO[C@@H](COP(=O)(O)OP(=O)(O)OP(=O)(O)O)O2)c(=O)nc1N` [COMPOUND#25(+), (+)-triphosphate-cis-2-hydroxymethyl-4-(5′-methylcytosin-1′-yl)-1,3-dioxolane], the inhibition at 50 µM in experiment [2] was determined as 9%.

On to `Cc1cn([C@H]2CO[C@@H](COP(=O)(O)OP(=O)(O)OP(=O)(O)O)O2)c(=O)[nH]c1=O` [COMPOUND#26(+), (+)-triphosphate-cis-2-hydroxymethyl-4-(N-1′-thiminyl)-1,3-dioxolane], for which the inhibition at 100 µM in experiment [2] was 47%.

Values taken from patent US6566365B1, “Method for the treatment of Flaviviridea viral infection using nucleoside analogues” (BioChem Pharma Inc., priority 1999, dated 2003).
